Reference: PubChem BioAssay AID1626 (SRMLSC, 2009)

Test system: M. tuberculosis H37Rv growth inhibition
Experiment: M. tuberculosis H37Rv growth inhibitors, H37Rv strain (AID 1626)
Details: for IC90: measured here: IC90 against H37Rv; for CC50: measured here: Vero cell cytotoxicity

With `Cc1ccc(-c2noc(CCC(=O)NCCCN3CCN(c4cccc(Cl)c4)CC3)n2)cc1` the IC50 was 9.9 µM, the IC90 was 13.2 µM and the CC50 was > 40 µM.

With `CCc1ccc(C(=O)CSC2=C(C#N)C(c3ccco3)C(C(C)=O)=C(C)N2)cc1` (stereo not drawn) the IC50 was 7.81 µM, the IC90 was 23.3 µM and the CC50 was > 40 µM.

In the case of `O=C(NCc1ccco1)c1cnn2c1NC(c1ccc(Br)cc1)CC2C(F)(F)F` (stereo not drawn), the IC50 is reported as 1.51 µM, the IC90 is reported as 1.71 µM and the CC50 is reported as > 40 µM.

For `Oc1cccc2ccc(/C=C/c3c(F)cccc3Cl)nc12`, the IC50 was 1.37 µM, the IC90 was 6.64 µM and the CC50 was > 40 µM.

`O=C(/C=C/c1cccc([N+](=O)[O-])c1)NC1CC2CCC1C2` (stereo not drawn) was tested, and the IC50 was 6.04 µM and the IC90 was > 100 µM.

`COc1ccc(Br)cc1C(=O)Nc1ccccc1N1CCN(C(=O)c2ccccc2)CC1` was tested, and the IC50 was 16.7 µM, the IC90 was > 100 µM and the CC50 was > 40 µM.

With `CCOC(=O)c1ccc(NC(=O)CSc2nnc(COc3ccccc3OC)n2C)cc1` the IC90 was > 100 µM.

For `CCOC(=O)C1=C(CC)Nc2ccccc2N=C1NC(=O)Nc1ccc(Cl)c(Cl)c1`, the IC50 was 2.73 µM, the IC90 was 3.1 µM and the CC50 was 10.3 µM.

In the case of `O=C(O)/C=C/C(=O)Nc1ccc(-n2nccc2C(F)(F)F)cc1`, the IC90 is reported as > 100 µM.

`COc1ccccc1-c1nnc(SCC(=O)Nc2cc(C)on2)o1` showed an IC50 of 10.4 µM and an IC90 of 16.5 µM.

With `Nc1cc2nc3ccccc3oc-2cc1=O` the IC50 was 0.368 µM, the IC90 was 0.916 µM and the CC50 was > 40 µM.

With `O=C1C=C(Nc2ccccc2)C(=O)c2ccccc21` the IC50 was 11.7 µM, the IC90 was 13.4 µM and the CC50 was > 40 µM.

For `CCOC(=O)Oc1ccc2oc(C)c(C(=O)OCCOC)c2c1`, the IC50 was 26.1 µM and the IC90 was > 100 µM.

With `COc1ccc(NC(=O)CSCc2ccc(C)cc2)cc1` the IC50 was 26.5 µM and the IC90 was > 100 µM.

In the case of `COc1ccc(OC(=O)c2cnn(-c3ccccc3)c2C)cc1`, the IC50 is reported as 71.2 µM and the IC90 is reported as > 100 µM.

With `COc1ccc(/C=C/c2cc(-c3ccc(C)cc3)o[n+]2C)cc1` the IC50 was 3.21 µM, the IC90 was 7.34 µM and the CC50 was > 40 µM.

For `COc1ccc(-c2nc(NC(=O)c3cc(C(C)(C)C)nn3C)sc2C)cc1`, the IC50 was 4.42 µM, the IC90 was 8.83 µM and the CC50 was > 40 µM.

In the case of `Cc1ccc(-c2c[n+](CC(=O)Nc3nc(-c4ccc(F)cc4)cs3)c3n2CCC3)cc1`, the IC50 is reported as 4.87 µM and the IC90 is reported as 7.09 µM.

Molecule `Cc1cc(C)c(N=Cc2c(O)n(-c3nccs3)c(=O)c3ccccc23)c(C)c1` has an IC50 of 13.1 µM and an IC90 of 71.4 µM.

Work on `COc1c(Cl)cc(Cl)cc1/C=C/C(=O)c1ccc(NC(=O)c2cccs2)cc1` yielded an IC50 of 7.91 µM, an IC90 of 16.4 µM and a CC50 of 6.47 µM.

For `COc1ccc(N/C=C2\CCc3ccccc3C2=O)cc1`, the IC90 was > 100 µM and the CC50 was > 40 µM.

For `CCOc1ccc(N=CC2=C(O)CC(c3ccco3)CC2=O)cc1` (stereo not drawn), the IC50 was 5.31 µM and the IC90 was > 100 µM.

Molecule `Cc1nc([N+](=O)[O-])c(Br)n1Cc1ccc(Cl)c(Cl)c1` has an IC50 of 4.08 µM, an IC90 of 7.03 µM and a CC50 of 12.5 µM.

With `COc1ccc(C2(O)CC3CCC(C2)N3c2cc(C)nc(-c3ccccc3)n2)cc1` (stereo not drawn) the IC50 was 17.5 µM, the IC90 was 23.9 µM and the CC50 was > 40 µM.

For `CCC(=C(c1ccc(OC)cc1)c1ccc(OC)cc1)c1cn(CC(O)CN(CCO)CCO)c2ccccc12` (stereo not drawn), the IC50 was 12.5 µM, the IC90 was 13.6 µM and the CC50 was 26.5 µM.

`Cc1ccc(C)c(-c2cc(C(=O)Nc3nccs3)c3ccccc3n2)c1` was tested, and the IC50 was 8.18 µM and the IC90 was 11.3 µM.

For `CCCc1cc(=O)[nH]c(SCC(=O)Nc2nc3ccc(OCC)cc3s2)n1`, the CC50 was > 40 µM.

`O=C(Nc1nc(-c2ccccn2)cs1)C1CCCC1` was tested, and the IC50 was 2.54 µM, the IC90 was 5.83 µM and the CC50 was > 40 µM.

For `CCOC(=O)CNC(=O)CSc1ncnc2c1nnn2-c1ccc(F)cc1`, the IC90 was > 100 µM.

`CCN1CCN(Cc2ccc(NC(=O)c3cc(NC(=O)c4cncc(-c5ccc(C#N)cc5)c4)cc(OC)c3)cc2C(F)(F)F)CC1` was tested, and the IC50 was 4.55 µM, the IC90 was 6.7 µM and the CC50 was 5.63 µM.

`N#Cc1ccc(/C=C/C(=O)c2ccccc2)cc1` was tested, and the IC50 was 5.89 µM, the IC90 was 7.86 µM and the CC50 was > 40 µM.

Molecule `CCOC(=O)c1cnc(-n2nc(C)cc2C)nc1Nc1ccc(OC)cc1` has an IC50 of 0.641 µM and an IC90 of 1.27 µM.

With `CCOC(=O)Cc1ccc(NC(=O)c2ccc(C(C)(C)C)cc2)cc1` the IC50 was 35.6 µM, the IC90 was > 100 µM and the CC50 was > 40 µM.

In the case of `Cc1[nH]n(C2=NCCS2)c(=O)c1N=Nc1cccc(C(F)(F)F)c1`, the IC50 is reported as 0.387 µM, the IC90 is reported as 1.47 µM and the CC50 is reported as 9.46 µM.

For `O=[N+]([O-])c1cccn2cc(-c3ccc(Br)cc3)nc12`, the IC50 was 18.8 µM, the IC90 was > 100 µM and the CC50 was 27.1 µM.

`Nc1ccc(C(=O)c2cccs2)cc1` was tested, and the IC50 was 22.1 µM and the IC90 was > 100 µM.

In the case of `COc1cnc(-c2ccccn2)nc1Oc1c(C)cccc1C`, the IC50 is reported as 5.19 µM, the IC90 is reported as 14.7 µM and the CC50 is reported as 19.8 µM.

In the case of `Cc1cc(=O)[nH]c(-n2nc(C)cc2C)n1`, the IC50 is reported as 1.42 µM, the IC90 is reported as 2.43 µM and the CC50 is reported as > 40 µM.

`CCOC(=O)N1CCN(C(=O)CSc2nnc(-c3cc(OC)cc(OC)c3)o2)CC1` showed an IC50 of 2.82 µM and an IC90 of 7.03 µM.

In the case of `COc1cc(/C=N/NC(=Nc2ccc(C)cc2)c2nc3ccccc3s2)ccc1O`, the IC90 is reported as > 100 µM and the CC50 is reported as > 40 µM.
